# “Also recorded” adds a separate entry of the source.
# System: cataracts in rats
# Assay: Prevention or retardation of cataracts in galactose-fed rats
# Type: in vivo, rat
# Conditions: for suppression of the formation of nuclear cataracts: 30 days; for % of Total Eyes, + (vacuole) / % of Total Eyes, - (Normal) / % of Total Eyes, N (nuclear cataract) / % of Total Eyes, S (snowflake) / Number of Eyes Observed, + (vacuole) / Number of Eyes Observed, - (Normal) / Number of Eyes Observed, N (nuclear cataract) / Number of Eyes Observed, S (snowflake) / Number of Eyes Observed, ±: 30% galactose diet, A,C,E 0.0025%, B,D 0.01%
# In short: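 Rats given test compound mixed into diet (by % of total feed weight; 0.01% designed to supply 20 mg/kg/day) ad libitum for thirty days after a two-day chow acclimatization, twelve animals per treatment. Eyes examined by handheld ophthalmoscope and/or penlight and each eye graded.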
substance,measurement,setting,value
"dl-spiro-(6-methylthio-chroman-4,4'-imidazolidine)-2',5'-dione",suppression of the formation of nuclear cataracts,0.0025% in diet,greater than 80%
same,"time of suppression, time to vacuole formation",0.01% in diet,13.5 days
same,"time to snowflake / retardation of cataract, versus Sarges 0.0025% d-6-fluoro",0.01% in diet,not significantly different from the Sarges 0.0025% d-6-fluoro control; also recorded: retard the progress of cataract formation slightly better than the Sarges control; also recorded: surpassed the positive control
same,"time to vacuole formation, versus Sarges 0.0025% d-6-fluoro",0.01% in diet,statistically lower (p<0.05) than the Sarges standard
same,suppression of the formation of nuclear cataracts,0.01% in diet,100%
same,"% of Total Eyes, + (vacuole)",Study Day 2,0%
same,"% of Total Eyes, - (Normal)",Study Day 2,100.0%
same,"% of Total Eyes, N (nuclear cataract)",Study Day 2,0%
same,"% of Total Eyes, S (snowflake)",Study Day 2,0%
same,"Number of Eyes Observed, + (vacuole)",Study Day 2,0 eyes
same,"Number of Eyes Observed, - (Normal)",Study Day 2,24 eyes
same,"Number of Eyes Observed, N (nuclear cataract)",Study Day 2,0 eyes
same,"Number of Eyes Observed, S (snowflake)",Study Day 2,0 eyes
same,"Number of Eyes Observed, ±",Study Day 2,0 eyes
same,"% of Total Eyes, + (vacuole)",Study Day 3,0%
same,"% of Total Eyes, - (Normal)",Study Day 3,100.0%
same,"% of Total Eyes, N (nuclear cataract)",Study Day 3,0%
same,"% of Total Eyes, S (snowflake)",Study Day 3,0%
same,"Number of Eyes Observed, + (vacuole)",Study Day 3,0 eyes
same,"Number of Eyes Observed, - (Normal)",Study Day 3,24 eyes
same,"Number of Eyes Observed, N (nuclear cataract)",Study Day 3,0 eyes
same,"Number of Eyes Observed, S (snowflake)",Study Day 3,0 eyes
same,"Number of Eyes Observed, ±",Study Day 3,0 eyes
same,"% of Total Eyes, + (vacuole)",Study Day 4,0%
same,"% of Total Eyes, - (Normal)",Study Day 4,16.7%
same,"% of Total Eyes, N (nuclear cataract)",Study Day 4,0%
same,"% of Total Eyes, S (snowflake)",Study Day 4,0%
same,"Number of Eyes Observed, + (vacuole)",Study Day 4,0 eyes
same,"Number of Eyes Observed, - (Normal)",Study Day 4,4 eyes
same,"Number of Eyes Observed, N (nuclear cataract)",Study Day 4,0 eyes
same,"Number of Eyes Observed, S (snowflake)",Study Day 4,0 eyes
same,"Number of Eyes Observed, ±",Study Day 4,20 eyes
same,"% of Total Eyes, + (vacuole)",Study Day 5,75.0%
same,"% of Total Eyes, - (Normal)",Study Day 5,0%
same,"% of Total Eyes, N (nuclear cataract)",Study Day 5,0%
same,"% of Total Eyes, S (snowflake)",Study Day 5,0%
same,"Number of Eyes Observed, + (vacuole)",Study Day 5,18 eyes
same,"Number of Eyes Observed, - (Normal)",Study Day 5,0 eyes
same,"Number of Eyes Observed, N (nuclear cataract)",Study Day 5,0 eyes
same,"Number of Eyes Observed, S (snowflake)",Study Day 5,0 eyes
same,"Number of Eyes Observed, ±",Study Day 5,6 eyes
same,"% of Total Eyes, + (vacuole)",Study Day 6,83.3%
same,"% of Total Eyes, - (Normal)",Study Day 6,0%
same,"% of Total Eyes, N (nuclear cataract)",Study Day 6,0%
same,"% of Total Eyes, S (snowflake)",Study Day 6,0%
same,"Number of Eyes Observed, + (vacuole)",Study Day 6,20 eyes
same,"Number of Eyes Observed, - (Normal)",Study Day 6,0 eyes
same,"Number of Eyes Observed, N (nuclear cataract)",Study Day 6,0 eyes
same,"Number of Eyes Observed, S (snowflake)",Study Day 6,0 eyes
same,"Number of Eyes Observed, ±",Study Day 6,4 eyes
same,"% of Total Eyes, + (vacuole)",Study Day 8,100.0%
same,"% of Total Eyes, - (Normal)",Study Day 8,0%
same,"% of Total Eyes, N (nuclear cataract)",Study Day 8,0%
same,"% of Total Eyes, S (snowflake)",Study Day 8,0%
same,"Number of Eyes Observed, + (vacuole)",Study Day 8,24 eyes
same,"Number of Eyes Observed, - (Normal)",Study Day 8,0 eyes
same,"Number of Eyes Observed, N (nuclear cataract)",Study Day 8,0 eyes
same,"Number of Eyes Observed, S (snowflake)",Study Day 8,0 eyes
same,"Number of Eyes Observed, ±",Study Day 8,0 eyes
same,"% of Total Eyes, + (vacuole)",Study Day 10,79.2%
same,"% of Total Eyes, - (Normal)",Study Day 10,0%
same,"% of Total Eyes, N (nuclear cataract)",Study Day 10,0%
same,"% of Total Eyes, S (snowflake)",Study Day 10,20.8%
same,"Number of Eyes Observed, + (vacuole)",Study Day 10,19 eyes
same,"Number of Eyes Observed, - (Normal)",Study Day 10,0 eyes
same,"Number of Eyes Observed, N (nuclear cataract)",Study Day 10,0 eyes
same,"Number of Eyes Observed, S (snowflake)",Study Day 10,5 eyes
same,"Number of Eyes Observed, ±",Study Day 10,0 eyes
same,"% of Total Eyes, + (vacuole)",Study Day 12,58.4%
same,"% of Total Eyes, - (Normal)",Study Day 12,0%
same,"% of Total Eyes, N (nuclear cataract)",Study Day 12,0%
same,"% of Total Eyes, S (snowflake)",Study Day 12,41.6%
same,"Number of Eyes Observed, + (vacuole)",Study Day 12,14 eyes
same,"Number of Eyes Observed, - (Normal)",Study Day 12,0 eyes
same,"Number of Eyes Observed, N (nuclear cataract)",Study Day 12,0 eyes
same,"Number of Eyes Observed, S (snowflake)",Study Day 12,10 eyes
same,"Number of Eyes Observed, ±",Study Day 12,0 eyes
same,"% of Total Eyes, + (vacuole)",Study Day 14,41.6%
same,"% of Total Eyes, - (Normal)",Study Day 14,0%
same,"% of Total Eyes, N (nuclear cataract)",Study Day 14,0%
